Earlier results on two compounds are cited in paper PMC13515262 (Molecules, 2026).

As a reminder, the Ki is a measure of affinity in units of concentration, obtained from inhibition or displacement.

For this data set, the target named is T1, AChE (Electrophorus electricus, UniProt O42275).
T1 construct: The reaction was carried out using AChE serum obtained from the electric eel; from tissue; host or cells: 'serum' of the electric eel (so in the source)
Particulars: ref 39 (CAPE), 35 (Spiraeoside), 43 (olivetol), 36 (Vescalagin), 34 (Magnofluorine), 40 (taxifolin), 33 (coumestrol); read-out: Ki AChE (literature).

T1 sequence (O42275 24-633): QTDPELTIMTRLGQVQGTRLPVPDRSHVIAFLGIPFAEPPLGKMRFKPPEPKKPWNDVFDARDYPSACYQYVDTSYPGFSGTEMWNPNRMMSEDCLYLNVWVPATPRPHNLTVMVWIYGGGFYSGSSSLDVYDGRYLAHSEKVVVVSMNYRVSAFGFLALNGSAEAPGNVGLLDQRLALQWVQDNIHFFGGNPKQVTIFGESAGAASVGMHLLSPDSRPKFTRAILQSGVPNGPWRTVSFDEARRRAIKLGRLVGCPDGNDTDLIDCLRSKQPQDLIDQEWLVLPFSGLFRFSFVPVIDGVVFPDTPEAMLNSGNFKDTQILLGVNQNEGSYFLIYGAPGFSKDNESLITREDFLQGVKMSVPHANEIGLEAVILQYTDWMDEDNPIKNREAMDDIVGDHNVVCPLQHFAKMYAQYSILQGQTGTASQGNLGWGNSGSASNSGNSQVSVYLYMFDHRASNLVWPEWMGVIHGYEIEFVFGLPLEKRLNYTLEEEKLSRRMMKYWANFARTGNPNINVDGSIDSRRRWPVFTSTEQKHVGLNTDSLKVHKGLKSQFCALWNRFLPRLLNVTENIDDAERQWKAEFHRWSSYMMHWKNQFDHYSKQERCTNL

For `O=C(/C=C/c1ccc(O)c(O)c1)OCCc1ccccc1` [CAPE, caffeic acid phenethyl ester], the Ki was 0.518 nM. Consider `O=c1c(O)c(-c2ccc(O[C@@H]3O[C@H](CO)[C@@H](O)[C@H](O)[C@H]3O)c(O)c2)oc2cc(O)cc(O)c12` [Spiraeoside], for which the Ki was 3.4 nM.
